According to ChEMBL document CHEMBL1124916, “Neural networks applied to quantitative structure-activity relationship analysis” (1990):

Experiments:
Assay type in all cases: functional
[1] = species: Mus musculus; assay: Optimal Dose (OD) which cause maximum increase in the life span, after chronic injection at log (1/C).
[2] = species: Mus musculus; assay: Optimal Dose (OD) which cause maximum increase in the life span, after singular injection at log (1/C).
[3] = species: Mus musculus; assay: Minimum Effective Dose (MED) which cause 40% increase in life span, after chronic injection at log (1/C).
[4] = species: Mus musculus; assay: Minimum Effective Dose (MED) which cause 40% increase in life span, after singular injection at log (1/C).

Compound	OD [1]	OD [2]	MED [3]	MED [4]
CC1=C(N2CC2)C(=O)C(C(C)COC(N)=O)=C(N2CC2)C1=O (centres undefined)	5.71	5.31	6.41	5.93
CCCC1=C(N2CC2)C(=O)C(CCOC(N)=O)=C(N2CC2)C1=O	5.23	4.42	5.68	4.9
COC(COC(N)=O)C1=C(N2CC2)C(=O)C(C)=C(N2CC2)C1=O (centres undefined) [CARBOQUONE]	5.66	5.03	6.41	5.81
CC1=C(N2CC2)C(=O)C(CCCOC(N)=O)=C(N2CC2)C1=O	5.93	5.48	6.18	5.55
CC1=C(N2CC2)C(=O)C(N2CC2)=C(N2CC2)C1=O	6.21	5.69	6.77	6.54
CCC1=C(N2CC2)C(=O)C(CCOC(N)=O)=C(N2CC2)C1=O	5.48	4.88	6.25	5.98
COC1=C(N2CC2)C(=O)C(OC)=C(N2CC2)C1=O	5.17	4.32	5.59	4.81
COCCC1=C(N2CC2)C(=O)C(C)=C(N2CC2)C1=O	5.42	5.12	5.57	5.19
CC1=C(N2CC2)C(=O)C(CCCc2ccccc2)=C(N2CC2)C1=O	4.21	3.6	4.47	3.93
CCCCCC1=C(N2CC2)C(=O)C(CCCCC)=C(N2CC2)C1=O	4.52	3.62	4.63	4.07
CC1=C(N2CC2)C(=O)C(CCOC(N)=O)=C(N2CC2)C1=O	5.75	5.46	6.21	5.83
